Measurements published in the NIST ThermoML archive (doi:10.1021/je400529k).
“And” between values parts separate entries of the source, which are not always exact repeats. Identical values can stand only once.

How the values were obtained:
[1] = xn = mol fraction of the nth substance listed; conditions: 101 kPa, Liquid; for viscosity: Capillary tube (Ostwald / Ubbelohde) method; for mass density: Vibrating tube method
[2] = refractive index (Na D-line) (dimensionless); xn = mol fraction of the nth substance listed; conditions: 101 kPa, Liquid, Standard Abbe refractometry
[3] = 101 kPa, Liquid; for viscosity: Capillary tube (Ostwald / Ubbelohde) method; for mass density: Vibrating tube method
[4] = refractive index (Na D-line) (dimensionless); conditions: 101.33 kPa, Liquid, Standard Abbe refractometry

C1C[C@@H]2[C@H]3CC[C@H](C3)[C@@H]2C1 [exo-tetrahydrodicyclopentadiene] + CC1CCC(C)C(C)C1
x1 = 1
Conditions | mass density, [1] [kg/m3] | refractive index, [2] | viscosity, [1] [mPa·s]
293.15 K | 935.72 | 1.4874 | 2.992
298.15 K | 931.84 | – | 2.71
303.15 K | 927.94 | 1.4831 | 2.467
308.15 K | 924.02 | – | 2.255
313.15 K | 920.11 | 1.4786 | 2.069
318.15 K | 916.18 | – | 1.907

CCC1CCCCC1 [ethylcyclohexane]
Conditions | mass density, [3] [kg/m3] | refractive index, [4] | viscosity, [3] [mPa·s]
293.15 K | 788.02 | 1.4319 | 0.845
298.15 K | 784.01 | – | 0.791
303.15 K | 779.98 | 1.4276 | 0.743
308.15 K | 775.93 | – | 0.7
313.15 K | 771.86 | 1.4225 | 0.661
318.15 K | 767.78 | – | 0.626

CC1CCCCC1 [methylcyclohexane]
Conditions | mass density, [3] [kg/m3] | refractive index, [4] | viscosity, [3] [mPa·s]
293.15 K | 769.35 | 1.422 | 0.733
298.15 K | 765.04 | – | 0.687
303.15 K | 760.71 | 1.4172 | 0.646
308.15 K | 756.36 | – | 0.609
313.15 K | 751.99 | 1.4118 | 0.576
318.15 K | 747.6 | – | 0.546

CC1CCC(C)C(C)C1 (stereo not drawn) [1,2,4-trimethylcyclohexane]
Conditions | mass density, [3] [kg/m3] | refractive index, [4] | viscosity, [3] [mPa·s]
293.15 K | 790.8 | 1.4331 | 0.886
298.15 K | 786.92 | – | 0.827
303.15 K | 783.03 | 1.4285 | 0.774
308.15 K | 779.13 | – | 0.727
313.15 K | 775.23 | 1.424 | 0.686
318.15 K | 771.32 | – | 0.648

C1C[C@@H]2[C@H]3CC[C@H](C3)[C@@H]2C1 [exo-tetrahydrodicyclopentadiene] + CCC1CCCCC1
x1 = 1
Conditions | mass density, [1] [kg/m3] | refractive index, [2] | viscosity, [1] [mPa·s]
293.15 K | 935.72 | 1.4874 | 2.992
298.15 K | 931.84 | – | 2.71
303.15 K | 927.9 | 1.4831 | 2.467
308.15 K | 924.02 | – | 2.255
313.15 K | 920.11 | 1.4786 | 2.069
318.15 K | 916.18 | – | 1.907

C1CCCCC1 [cyclohexane] + C1C[C@@H]2[C@H]3CC[C@H](C3)[C@@H]2C1
x2 = 0
Conditions | mass density, [1] [kg/m3] | refractive index, [2] | viscosity, [1] [mPa·s]
293.15 K | 778.51 | 1.4256 | 0.977
298.15 K | 773.84 | – | 0.898
303.15 K | 769.11 | 1.4205 | 0.828
308.15 K | 764.36 | – | 0.766
313.15 K | 759.57 | 1.4143 | 0.712
318.15 K | – | – | 0.664

C1C[C@@H]2[C@H]3CC[C@H](C3)[C@@H]2C1 [exo-tetrahydrodicyclopentadiene]
Conditions | mass density, [3] | refractive index, [4] | viscosity, [3] [mPa·s]
293.15 K | 935.72 kg/m3 | 1.4874 | 2.992
298.15 K | 931.84 kg/m3 | – | 2.71
303.15 K | 927.94 kg/m3 and 927.9 kg/m3 | 1.4831 | 2.467
308.15 K | 924.02 kg/m3 | – | 2.255
313.15 K | 920.11 kg/m3 | 1.4786 | 2.069
318.15 K | 916.18 kg/m3 | – | 1.907

C1CCCCC1 [cyclohexane]
Conditions | mass density, [3] [kg/m3] | refractive index, [4] | viscosity, [3] [mPa·s]
293.15 K | 778.51 | 1.4256 | 0.977
298.15 K | 773.84 | – | 0.898
303.15 K | 769.11 | 1.4205 | 0.828
308.15 K | 764.36 | – | 0.766
313.15 K | 759.57 | 1.4143 | 0.712
318.15 K | – | – | 0.664

CCCCC1CCCCC1 [butylcyclohexane] + C1C[C@@H]2[C@H]3CC[C@H](C3)[C@@H]2C1
x2 = 0
Conditions | mass density, [1] [kg/m3] | refractive index, [2] | viscosity, [1] [mPa·s]
293.15 K | 799.47 | 1.4399 | 1.302
298.15 K | 795.71 | – | 1.2
303.15 K | 791.96 | 1.4354 | 1.111
308.15 K | 788.2 | – | 1.032
313.15 K | 784.43 | 1.4311 | 0.962
318.15 K | 780.65 | – | 0.899

CC1CCCCC1 [methylcyclohexane] + C1C[C@@H]2[C@H]3CC[C@H](C3)[C@@H]2C1
x2 = 0
Conditions | mass density, [1] [kg/m3] | refractive index, [2] | viscosity, [1] [mPa·s]
293.15 K | 769.35 | 1.422 | 0.733
298.15 K | 765.04 | – | 0.687
303.15 K | 760.71 | 1.4172 | 0.646
308.15 K | 756.36 | – | 0.609
313.15 K | 751.99 | 1.4118 | 0.576
318.15 K | 747.6 | – | 0.546

CCCCC1CCCCC1 [butylcyclohexane]
Conditions | mass density, [3] [kg/m3] | refractive index, [4] | viscosity, [3] [mPa·s]
293.15 K | 799.47 | 1.4399 | 1.302
298.15 K | 795.71 | – | 1.2
303.15 K | 791.96 | 1.4354 | 1.111
308.15 K | 788.2 | – | 1.032
313.15 K | 784.43 | 1.4311 | 0.962
318.15 K | 780.65 | – | 0.899
